Laboratory results reported in paper PMC12376128, “In vitro and In Vivo Drug Metabolism Analysis of BPI-460372 - A Covalent TEAD1/3/4 Inhibitor” (Current Drug Metabolism, 2025).

Tests used:
[1] = molecular target: T1, CYP1A2 (Homo sapiens, UniProt P05177); assay: Metabolic stability in HLMs with or without specific CYP inhibitor (α-naphthoflavone); format: in vitro ADME; parameters: HLMs (1 mg protein·mL^-1); tissue BioIVT; host or cells: pooled human liver microsomes; settings: HLMs 1 mg protein/mL, substrate 1 μM, α-naphthoflavone 2 µM
T1 sequence (P05177 1-516): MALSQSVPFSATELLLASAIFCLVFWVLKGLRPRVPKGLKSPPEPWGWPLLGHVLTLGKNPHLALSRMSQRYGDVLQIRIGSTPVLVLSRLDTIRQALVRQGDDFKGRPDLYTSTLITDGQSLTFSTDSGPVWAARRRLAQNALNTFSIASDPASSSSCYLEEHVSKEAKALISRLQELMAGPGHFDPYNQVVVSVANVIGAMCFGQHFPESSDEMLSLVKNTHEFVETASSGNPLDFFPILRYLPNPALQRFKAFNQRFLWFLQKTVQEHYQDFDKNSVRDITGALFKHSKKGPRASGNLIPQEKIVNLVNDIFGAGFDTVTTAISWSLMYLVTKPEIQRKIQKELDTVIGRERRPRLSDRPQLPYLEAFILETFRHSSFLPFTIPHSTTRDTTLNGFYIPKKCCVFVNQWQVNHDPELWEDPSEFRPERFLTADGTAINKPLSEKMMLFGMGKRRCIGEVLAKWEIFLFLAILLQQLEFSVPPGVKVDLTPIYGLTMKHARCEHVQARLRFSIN
Protocol: Before starting the experiments, the HLMs were thawed gently on ice. Metabolic stability incubations were performed at 37 °C. The incubations contained 100 mM phosphate buffer saline (PBS, pH 7.4), HLMs (1 mg protein·mL^-1), dimethyl sulfoxide (DMSO, blank control) or a selective CYP inhibitor, and BPI-460372 or positive control substrates (final incubation concentration, 1 μM). The incubation process started with the addition of NADPH (1 mM final concentration) after a 5-minute preincubation period. The chemical inhibitors were as follows: a-naphthoflavone (2 µM) for CYP1A2, ticlopidine (20 µM) for 2B6, quercetin (20 µM) for CYP2C8, sulfaphenazole (20 µM) for CYP2C9, ticlopidine (200 µM) for CYP2C19, quinidine (20 µM) for CYP2D6, and ketoconazole (20 µM) for CYP3A [9]. Aliquots were maintained in acetonitrile containing internal standard (IS) at various time points, such as 0 min, 5 min, 10 min, 20 min, 30 min, and 60 min. All incubations were performed in triplicate, and the concentration in the supernatant was determined by liquid chromatography-tandem mass spectrometry (LC-MS/MS).
The elimination rate constant k (min^-1) was obtained by linear regression from the natural logarithm of the […] of the parent drug and the incubation time. The inhibition rate was calculated using equation 1 [10]: […]

[2] = test system: dog hepatocytes; assay: Metabolism and metabolite formation in hepatocytes; format: in vitro ADME, beagle dog; settings: beagle dog hepatocytes, 10 µM BPI-460372, 4 h incubation
Description: All the samples were duplicates.

[3] = molecular target: T2, recombinant human CYP3A4 (Homo sapiens, UniProt P08684); assay: Metabolic stability in recombinant human CYP isoenzymes; format: in vitro ADME; settings: rCYP3A4 100 pmol P450/mL, 1 µM
T2 construct: purchased Cypex Ltd. (Dundee, UK)
Protocol: (§1) To identify the specific isoform that participates in the metabolism of BPI-460372, 1 µM BPI-460372 or positive control substrates were mixed with recombinant human CYP1A2, 2B6, 2C8, 2C9, 2C19, 2D6 or 3A4 (100 pmol P450·mL^-1), and the reaction was started by the addition of NADPH (1 mM final concentration) after 5-minute preincubation at 37°C. Aliquots were maintained in acetonitrile containing IS at different time points at 0 min, 5 min, 10 min, 20 min, 30 min, and 60 min. All incubations were performed in triplicate, and the concentration of the supernatant was determined by LC-MS/MS.
(§2) A substrate depletion approach was employed to determine the intrinsic clearance (CLint (rCYPj)) for each isoform. The contribution of each isoform was estimated using equations 2 and 3. CYPj abundance was evaluated as the abundance (CYPj) of each isoform in HLMs (pmol/mg protein).

[4] = molecular target: T3, recombinant human CYP2C8 (Homo sapiens, UniProt P10632); assay: as above; format: in vitro ADME; settings: rCYP2C8 100 pmol P450/mL, 1 µM
T3 construct: purchased Cypex Ltd. (Dundee, UK)
T3 sequence (P10632 1-490): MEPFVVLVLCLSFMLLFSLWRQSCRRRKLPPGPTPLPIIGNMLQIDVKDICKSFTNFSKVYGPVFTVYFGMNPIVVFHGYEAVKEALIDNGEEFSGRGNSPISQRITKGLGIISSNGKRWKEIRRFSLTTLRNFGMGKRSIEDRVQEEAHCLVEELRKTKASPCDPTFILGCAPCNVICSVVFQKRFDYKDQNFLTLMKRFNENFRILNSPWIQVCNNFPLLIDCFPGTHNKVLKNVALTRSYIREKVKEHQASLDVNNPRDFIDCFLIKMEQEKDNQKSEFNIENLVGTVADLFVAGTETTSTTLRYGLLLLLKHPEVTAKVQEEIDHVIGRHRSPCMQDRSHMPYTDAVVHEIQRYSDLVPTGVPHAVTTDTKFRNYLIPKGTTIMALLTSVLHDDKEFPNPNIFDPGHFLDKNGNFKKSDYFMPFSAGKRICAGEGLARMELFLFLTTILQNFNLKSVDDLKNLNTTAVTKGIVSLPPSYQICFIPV
Protocol: as §1, §2

[5] = Stability in plasma; format: in vitro ADME; settings: mouse plasma, 37°C, 4 h

T2 sequence (P08684 whole entry): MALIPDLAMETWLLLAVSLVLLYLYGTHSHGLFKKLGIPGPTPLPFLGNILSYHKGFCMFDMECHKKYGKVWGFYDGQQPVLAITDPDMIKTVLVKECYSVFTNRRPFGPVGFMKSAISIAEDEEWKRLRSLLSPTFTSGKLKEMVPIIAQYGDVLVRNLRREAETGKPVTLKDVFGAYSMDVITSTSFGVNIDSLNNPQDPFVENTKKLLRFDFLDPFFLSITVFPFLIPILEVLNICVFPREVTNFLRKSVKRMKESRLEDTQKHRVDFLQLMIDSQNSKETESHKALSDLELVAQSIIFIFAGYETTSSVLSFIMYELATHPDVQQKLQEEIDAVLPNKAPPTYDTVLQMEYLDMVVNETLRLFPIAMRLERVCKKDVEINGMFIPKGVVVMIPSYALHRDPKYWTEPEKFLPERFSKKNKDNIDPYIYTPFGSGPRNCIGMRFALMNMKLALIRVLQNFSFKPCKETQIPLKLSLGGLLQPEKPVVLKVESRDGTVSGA

C=C(F)C(=O)N1CC(n2c(=O)n(-c3ccc(C(F)(F)F)cc3)c3nccnc32)C1 [BPI-460372]
Inhibition Rate [1]: 32.7% | UV (314 nm) Peak Areas Relative Abundance [2]: 48.28% | Contribution [3]: 28.3% | Contribution [4]: 8.8% | Stability in plasma [5]: stable
